From paper PMC11443414 (RSC Advances, 2024)
Counter-ions that a name gives are not always drawn.

Columns and labels:
[1] = molecular target: T1, urease subunit gamma (UreA) (Staphylococcus aureus, UniProt Q6GEE6); assay: DSF titration; type: binding
T1 sequence (Q6GEE6 1-100): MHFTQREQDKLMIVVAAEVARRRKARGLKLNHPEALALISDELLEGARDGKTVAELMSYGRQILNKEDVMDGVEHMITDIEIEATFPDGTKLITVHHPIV

[2] = molecular target: T1, urease subunit gamma (UreA); type: binding

Row | SMILES | Kd [1] | STD-NMR (individual, group epitope mapping); DSF Tm shift [2]
1 | O=C(O)c1cccnc1 [compound 11, Nicotinic acid] | 70 mM | –
2 | CCOc1ccc(/C=C2\NCCc3cc(OCC)c(OCC)cc32)cc1OCC [compound 2, Drotaverine HCl] | – | Its GEM analysis indicated that CH2-18 received the highest saturation from the protein.
